From patent US10221186B2, “Spirocyclic heterocyclic compounds useful as HIV integrase inhibitors” (priority 2014, dated 2019)
Read-outs that look alike come from different tables or passages of the source.

Tested on: HIV-1 (NL4-3 strain)
Test: Assay for inhibition of HIV replication (VIKING) in infected MT4-GFP cells
Type: cell-based
Conditions: infected cells at 48 h / 24 h
Procedure: MT4-GFP cells (250,000 cells/ml) were bulk-infected with HIV-1 (NL4-3 strain) at low multiplicity of infection (MOI) in RPMI+10% FBS for 24 hours. […] Test compounds were serial-diluted in DMSO on ECHO. The infected MT4-GFP cells were added to a 384-well poly-D-lysine coated black plate with clear bottom in which the diluted test compounds were placed. The cells were seeded at 8,000 cells per well and the final DMSO concentration was 0.4%. The infected cells (Green GFP cells) were quantified at both 24 and 48 hours post incubation using Acumen eX3. Viral reproductive ratio (R0) was determined using the number of infected cells at 48 hours divided by the number of infected cells at 24 hours. Percent viral growth inhibition was calculated by [1−(R−Rtripledrug)/(RDMSO−Rtripledrug)]*100.

[1] = Human immunodeficiency virus 1, NL43, MT4-GFP cells infected with HIV-1 NL4-3, 0% NHS (normal human serum), read-out: VIKING IP50 (nM) with 0% NHS
[2] = MT4-GFP cells infected with HIV-1 NL4-3, 100% NHS (normal human serum), read-out: VIKING IP50 (nM) with 100% NHS
[3] = MT4-GFP cells infected with HIV-1 NL4-3, 0% NHS (normal human serum), read-out: VIKING IP50 (nM) with 0% NHS
[4] = Human immunodeficiency virus 1, NL43, MT4-GFP cells infected with HIV-1 NL4-3, 100% NHS (normal human serum), read-out: VIKING IP50 (nM) with 100% NHS

| SMILES | IC50 [1] [nM] | IC50 [2] [nM] | IC50 [3] [nM] | IC50 [4] [nM] |
| --- | --- | --- | --- | --- |
| COCCN1CC2(CCCOC2)n2cc(C(=O)NCc3ccc(F)cc3F)c(=O)c(O)c2C1=O (single isomer, unassigned) [Compound 8] | 2 | 260 |  |  |
| COCCN1CC2(CCCOC2)n2cc(C(=O)NCc3ccc(F)cc3F)c(=O)c(O)c2C1=O (single isomer, unassigned) [Compound 9] |  | 814 | 2 |  |
| COCCCN1CC2(CCOC2)n2cc(C(=O)NCc3ccc(F)cc3F)c(=O)c(O)c2C1=O (single isomer, unassigned) [Compound 12] |  |  | 5 | 47 |
| COCCCN1CC2(CCOC2)n2cc(C(=O)NCc3ccc(F)cc3F)c(=O)c(O)c2C1=O (single isomer, unassigned) [Compound 13] |  | 36 | 2 |  |
| CCN1C(=O)c2c(O)c(=O)c(C(=O)NCc3ccc(F)cc3F)cn2C2(COC2)C1OC (single isomer, unassigned) [Compound 33] | 3 | 210 |  |  |
| CCN1C(=O)c2c(O)c(=O)c(C(=O)NCc3ccc(F)cc3F)cn2C2(COC2)C1OC (single isomer, unassigned) [Compound 34] |  | 4920 | 5 |  |
| CCN1C(=O)c2c(O)c(=O)c(C(=O)NCc3ccc(F)cc3F)cn2C2(CCOC2)C1OC (single isomer, unassigned) [Compound 35] |  | 88 | 1 |  |
| CCN1C(=O)c2c(O)c(=O)c(C(=O)NCc3ccc(F)cc3F)cn2C2(CCOC2)C1OC (single isomer, unassigned) [Compound 36] |  | 114 | 3 |  |
| CCN1C(=O)c2c(O)c(=O)c(C(=O)NCc3ccc(F)cc3F)cn2C2(CCOC2)C1OC (single isomer, unassigned) [Compound 37] |  | 663 | 3 |  |
| CC(=O)N1CCC2(CN(C)C(=O)c3c(O)c(=O)c(C(=O)NCc4ccc(F)cc4F)cn32)C1 (single isomer, unassigned) [Compound 45] |  |  | 69 | 297 |
| CC(=O)N1CCC2(CN(C)C(=O)c3c(O)c(=O)c(C(=O)NCc4ccc(F)cc4F)cn32)C1 (single isomer, unassigned) [Compound 46] |  | 259 | 19 |  |
| CN1CC2(CCN(S(C)(=O)=O)C2)n2cc(C(=O)NCc3ccc(F)cc3F)c(=O)c(O)c2C1=O (single isomer, unassigned) [Compound 47] | 6 |  |  | 78 |
| CN1CC2(CCN(S(C)(=O)=O)C2)n2cc(C(=O)NCc3ccc(F)cc3F)c(=O)c(O)c2C1=O (single isomer, unassigned) [Compound 48] |  | 112 | 10 |  |
| CN1CCC2(C1)CN(C)C(=O)c1c(O)c(=O)c(C(=O)NCc3ccc(F)cc3F)cn12 (single isomer, unassigned) [Compound 49] | 2 |  |  | 90 |
| CN1CCC2(C1)CN(C)C(=O)c1c(O)c(=O)c(C(=O)NCc3ccc(F)cc3F)cn12 (single isomer, unassigned) [Compound 50] |  | 74 | 1 |  |
| CN1CC2(CCNC2)n2cc(C(=O)NCc3ccc(F)cc3F)c(=O)c(O)c2C1=O (single isomer, unassigned) [Compound 51] |  | 68 | 3 |  |
| CN1CC2(CCNC2)n2cc(C(=O)NCc3ccc(F)cc3F)c(=O)c(O)c2C1=O (single isomer, unassigned) [Compound 52] |  | 210 | 18 |  |
| CC(C)OC(=O)OCOP(=O)(CCN1C[C@@]2(CCOC2)n2cc(C(=O)NCc3ccc(F)cc3F)c(=O)c(O)c2C1=O)OCOC(=O)OC(C)C (single isomer, unassigned) [Compound 54] | 5 |  |  | 1600 |
| CC(C)OC(=O)OCOP(=O)(CCN1C[C@]2(CCOC2)n2cc(C(=O)NCc3ccc(F)cc3F)c(=O)c(O)c2C1=O)OCOC(=O)OC(C)C (single isomer, unassigned) [Compound 58] | 7 |  |  | 530 |
| CN(C)N1CC2(COC2)n2cc(C(=O)NCc3ccc(F)cc3F)c(=O)c(O)c2C1=O [Compound 1] | 4 |  |  | 1280 |
| CN(C)N1CC2(CCOCC2)n2cc(C(=O)NCc3ccc(F)cc3F)c(=O)c(O)c2C1=O [Compound 2] | 19 |  |  | 1510 |
| COCCN1CC2(COC2)n2cc(C(=O)NCc3ccc(F)cc3F)c(=O)c(O)c2C1=O [Compound 3] | 3 |  |  | 292 |
| CN1CC2(COC2)n2cc(C(=O)NCc3ccc(F)cc3F)c(=O)c(O)c2C1=O [Compound 4] | 2 |  |  | 334 |
| CCN1CC2(COC2)n2cc(C(=O)NCc3ccc(F)cc3F)c(=O)c(O)c2C1=O [Compound 5] | 4 |  |  | > 8400 |
| COCCN1CC2(CCOCC2)n2cc(C(=O)NCc3ccc(F)cc3F)c(=O)c(O)c2C1=O [Compound 6] | 6 |  |  | 646 |

| SMILES | IC50 [1] [nM] | IC50 [2] [nM] | IC50 [3] [nM] | IC50 [4] [nM] |
| --- | --- | --- | --- | --- |
| CN1CC2(CCOCC2)n2cc(C(=O)NCc3ccc(F)cc3F)c(=O)c(O)c2C1=O [Compound 7] | 6 |  |  | 113 |
| CN1CC2(CCCOC2)n2cc(C(=O)NCc3ccc(F)cc3F)c(=O)c(O)c2C1=O (stereo not shown) [Compound 10] | 3 | 75 |  |  |
| CN1CC2(CCCOC2)n2cc(C(=O)NCc3ccc(F)cc3F)c(=O)c(O)c2C1=O (stereo not shown) [Compound 11] |  | 442 | 3 |  |
| CN1CC2(CCOC2)n2cc(C(=O)NCc3ccc(F)cc3F)c(=O)c(O)c2C1=O (stereo not shown) [Compound 14] | 3 |  |  | 209 |
| CN1CC2(CCOC2)n2cc(C(=O)NCc3ccc(F)cc3F)c(=O)c(O)c2C1=O (stereo not shown) [Compound 15] |  | 108 | 4 |  |
| CCN1CC2(CCOC2)n2cc(C(=O)NCc3ccc(F)cc3F)c(=O)c(O)c2C1=O (stereo not shown) [Compound 16] | 2 |  |  | 4530 |
| CCN1CC2(CCOC2)n2cc(C(=O)NCc3ccc(F)cc3F)c(=O)c(O)c2C1=O (stereo not shown) [Compound 17] |  | > 8400 | 2 |  |
| COCN1CC2(CCOC2)n2cc(C(=O)NCc3ccc(F)cc3F)c(=O)c(O)c2C1=O (stereo not shown) [Compound 18] | 3 | > 8400 |  |  |
| COCN1CC2(CCOC2)n2cc(C(=O)NCc3ccc(F)cc3F)c(=O)c(O)c2C1=O (stereo not shown) [Compound 19] |  | 3420 | 2 |  |
| COCCN1CC2(CCOC2)n2cc(C(=O)NCc3ccc(F)cc3F)c(=O)c(O)c2C1=O (stereo not shown) [Compound 20] | 2 | 337 |  |  |
| COCCN1CC2(CCOC2)n2cc(C(=O)NCc3ccc(F)cc3F)c(=O)c(O)c2C1=O (stereo not shown) [Compound 21] |  | 129 | 3 |  |
| CCOCCN1CC2(CCOC2)n2cc(C(=O)NCc3ccc(F)cc3F)c(=O)c(O)c2C1=O (stereo not shown) [Compound 22] | 2 |  |  | 40 |
| CCOCCN1CC2(CCOC2)n2cc(C(=O)NCc3ccc(F)cc3F)c(=O)c(O)c2C1=O (stereo not shown) [Compound 23] |  | 27 | 1 |  |
| O=C(NCc1ccc(F)cc1F)c1cn2c(c(O)c1=O)C(=O)N(CCO)CC21CCOC1 (stereo not shown) [Compound 24] | 35 |  |  | > 8000 |
| COCCN1CC2(CCOC2)n2cc(C(=O)NCc3ccc(F)c(Cl)c3F)c(=O)c(O)c2C1=O (stereo not shown) [Compound 25] | 1 |  |  | 1730 |
| COCCN1CC2(CCOC2)n2cc(C(=O)NCc3ccc(F)c(Cl)c3F)c(=O)c(O)c2C1=O (stereo not shown) [Compound 26] |  | 1140 | 1 |  |
| COCCN1CC2(CCOC2)n2cc(C(=O)NCc3ccc(F)c(Cl)c3)c(=O)c(O)c2C1=O (stereo not shown) [Compound 27] | 3 |  |  | 3660 |
| COCCN1CC2(CCOC2)n2cc(C(=O)NCc3ccc(F)c(Cl)c3)c(=O)c(O)c2C1=O (stereo not shown) [Compound 28] |  | 2770 | 2 |  |
| COCCN1CC2(CCOC2)n2cc(C(=O)NCc3cccc(Cl)c3F)c(=O)c(O)c2C1=O (stereo not shown) [Compound 29] | 1 | 1140 |  |  |
| COCCN1CC2(CCOC2)n2cc(C(=O)NCc3cccc(Cl)c3F)c(=O)c(O)c2C1=O (stereo not shown) [Compound 30] |  | 417 | 1 |  |
| CCOP(=O)(CCN1CC2(CCOC2)n2cc(C(=O)NCc3ccc(F)cc3F)c(=O)c(O)c2C1=O)OCC (stereo not shown) [Compound 31] | 17 |  |  | 232 |
| O=C(NCc1ccc(F)cc1F)c1cn2c(c(O)c1=O)C(=O)N(CCP(=O)(O)O)CC21CCOC1 (stereo not shown) [Compound 32] | 293 |  |  | 873 |
| COC1N(N(C)C)C(=O)c2c(O)c(=O)c(C(=O)NCc3ccc(F)cc3F)cn2C12COC2 (stereo not shown) [Compound 38] | 7 |  |  | 235 |
| COCCN1CC2(CCOC2)n2cc(-c3nnc(Cc4ccc(F)cc4F)s3)c(=O)c(O)c2C1=O (stereo not shown) [Compound 39] | 2 | 291 |  |  |
| COCCN1CC2(CCOC2)n2cc(-c3nnc(Cc4ccc(F)cc4F)s3)c(=O)c(O)c2C1=O (stereo not shown) [Compound 40] |  | 691 | 4 |  |
